Data set [1] has as its system Aspergillus fumigatus. As to the kind of experiment: Antimicrobial activity against Aspergillus fumigatus MF-13 by broth microdilution method. The class given is functional. (Broth dilution looks for growth in wells or tubes with falling amounts of substance.)
Data set [2] concerns Aspergillus flavus. As to the kind of experiment: Antimicrobial activity against Aspergillus flavus conidia infected in DBA/2N mouse assessed as increased survival rate at 4 mg/kg, iv qd for 5 days relative to amphotericin B/L-amphotericin B. The class given is functional, organism-based. Further details: dose 4 mg/kg.
The subject of data set [3] is Aspergillus niger. As to the kind of experiment: Antimicrobial activity against Aspergillus niger conidia infected in DBA/2N mouse assessed as increased survival rate at =>0.25 mg/kg, iv qd for 5 days. The class given is functional, organism-based.
In data set [4] the test system is Aspergillus flavus. As to the kind of experiment: Antimicrobial activity against Aspergillus flavus infected in DBA/2N mouse at >1 mg/kg, iv qd for 5 days relative to amphotericin B. The class given is functional, organism-based.
The subject of data set [5] is Aspergillus niger. Kind of data set: Antimicrobial activity against Aspergillus niger conidia infected in DBA/2N mouse assessed as increased survival rate at 2 mg/kg, iv qd for 5 days relative to amphotericin B/L-amphotericin B. In kind it is functional, organism-based. Further details: dose 2 mg/kg.
In data set [6] the test system is Mus musculus. Kind of data set: Toxicity in DBA/2N mouse infected with Aspergillus at =<1.0 mg/kg, iv qd after 5 days. The class given is organism-based. The note with it: in vivo, 120 h.
In data set [7] the test system is Aspergillus fumigatus. As to the kind of experiment: Antimicrobial activity against Aspergillus fumigatus conidia infected in DBA/2N mouse assessed as increased survival rate at =>[…] mg/kg, iv qd for 5 days. The class given is functional, organism-based.
For data set [8], the system named is Aspergillus flavus. Kind of data set: Antimicrobial activity against Aspergillus flavus TIMM 0057 by broth microdilution method. In kind it is functional.
In data set [9] the test system is Aspergillus flavus. Kind of data set: Antimicrobial activity against Aspergillus flavus conidia infected in iv dosed DBA/2N mouse assessed as increased survival rate measured for 5 days. The class given is functional, organism-based.
Data set [10] deals with Aspergillus. As to the kind of experiment: Antimicrobial activity against Aspergillus infected in DBA/2N mouse at 1 mg/kg, iv qd for 5 days. The class given is functional, organism-based. Further details: dose 1 mg/kg.
The test system of data set [11] is Aspergillus flavus. Kind of data set: Antimicrobial activity against Aspergillus flavus conidia infected in DBA/2N mouse assessed as increased survival rate at =>1 mg/kg, iv qd for 5 days. The class given is functional, organism-based.
In data set [12] the test system is Aspergillus niger. Kind of data set: Antimicrobial activity against Aspergillus niger infected in DBA/2N mouse at >1 mg/kg, iv qd for 5 days relative to amphotericin B. The class given is functional, organism-based.
The test system of data set [13] is Aspergillus fumigatus. Kind of data set: Antimicrobial activity against Aspergillus fumigatus infected in DBA/2N mouse at >1 mg/kg, iv qd for 5 days relative to amphotericin B. The class given is functional, organism-based.
Data set [14] relates to Aspergillus fumigatus. Kind of data set: Antimicrobial activity against Aspergillus fumigatus conidia infected in DBA/2N mouse assessed as increased survival rate at 0.25 to 1 mg/kg, iv qd for 5 days. The class given is functional, organism-based.
Data set [15] has as its system Aspergillus. As to the kind of experiment: Antimicrobial activity against Aspergillus infected in DBA/2N mouse assessed as increased survival rate at >1 mg/kg, iv qd for 5 days relative to amphotericin B. In kind it is functional, organism-based.
Data set [16] has as its system Mus musculus. Kind of data set: Toxicity in DBA/2N mouse infected with Aspergillus at >1.0 mg/kg, iv qd for 5 days relative to amphotericin B. In kind it is organism-based. The note with it: in vivo, 120 h.
Data set [17] has as its system Aspergillus niger. Kind of data set: Antimicrobial activity against Aspergillus niger conidia infected in iv dosed DBA/2N mouse assessed as increased survival rate measured for 5 days. In kind it is functional, organism-based.
Data set [18] relates to Aspergillus niger. Kind of data set: Antimicrobial activity against Aspergillus niger TIMM 2814 by broth microdilution method. The class given is functional.
Data set [19] concerns Mus musculus. Kind of data set: Toxicity in Aspergillosis infected DBA/2N mouse assessed as histopathological lesions in kidney at 1 mg/kg, iv qd after 5 days. In kind it is organism-based. Further details: dose 1 mg/kg, route intravenous. The note with it: in vivo, 120 h.
Data set [20] concerns Mus musculus. As to the kind of experiment: Toxicity in Aspergillosis infected DBA/2N mouse assessed as kidney tubular cell necrosis and cast formation at 1 mg/kg, iv qd after 5 days. In kind it is organism-based. The note with it: in vivo, 120 h. Further details: dose 1 mg/kg, route intravenous.
For data set [21], the system named is Aspergillus fumigatus. Kind of data set: Antimicrobial activity against Aspergillus fumigatus conidia infected in DBA/2N mouse assessed as increased survival rate at 2 to 4 mg/kg, iv qd for 5 days. The class given is functional, organism-based.
The subject of data set [22] is Mus musculus. Kind of data set: Toxicity in Aspergillosis infected DBA/2N mouse assessed as histopathological lesions in kidney at 4 mg/kg, iv qd after 5 days. The class given is organism-based. Further details: dose 4 mg/kg, route intravenous. The note with it: in vivo, 120 h.

≈ marks a conversion by molar mass, not a printed value. Calls of active or inactive are those of the source. The calls are words filed in the database; no cut-off is given here. *1 amine or outer side, *2 acyl side, *3 side chain or, on linkers, in order; H or OH if unused. Where a SMILES comes first, the peptide text is derived from it. Bridges are numbered along the chain shown (N, C = ends). [ ]: non-standard residue; d: D form. The star is where a group is joined. hTyr(3S-OH,4S-OH,3'-OSO3H) = N[C@H](C(=O)O)[C@H](O)[C@@H](O)c1ccc(O)c(OS(=O)(=O)O)c1; Orn(4R-OH,5R-OH) = O=C([C@H](C[C@@H](O)[C@@H](O)N[*:3])N[*:1])[*:2]; Pro(3S-OH,4S-Me) = C[C@H]1CN[C@H](C(=O)O)[C@H]1O; X1 = CCCCCOc1ccc(-c2cc(-c3ccc(C(=O)*)cc3)no2)cc1; Gln(3R-OH) = NC(=O)C[C@@H](O)[C@H](N)C(=O)O; Hyp = O=C(O)[C@@H]1C[C@@H](O)CN1

MIC and Activity data for three compounds are collected here from ChEMBL document CHEMBL1275411, “Efficacy of SPK-843, a novel polyene antifungal, in comparison with amphotericin B, liposomal amphotericin B, and micafungin against murine pulmonary aspergillosis” (Antimicrob Agents Chemother, 2008).

For orientation: MIC means the least concentration at which growth counts as inhibited. Take `CCCCCOc1ccc(-c2cc(-c3ccc(C(=O)N[C@H]4C[C@@H](O)[C@@H](O)NC(=O)[C@@H]5[C@@H](O)[C@@H](C)CN5C(=O)[C@H]([C@H](O)CC(N)=O)NC(=O)[C@H]([C@H](O)[C@@H](O)c5ccc(O)c(OS(=O)(=O)O)c5)NC(=O)[C@@H]5C[C@@H](O)CN5C(=O)[C@H]([C@@H](C)O)NC4=O)cc3)no2)cc1` [MICAFUNGIN] (X1-[Orn(4R-OH,5R-OH)]T[Hyp][hTyr(3S-OH,4S-OH,3'-OSO3H)][Gln(3R-OH)][Pro(3S-OH,4S-Me)]; lactam 1-C): the MIC in the data set on Aspergillus fumigatus [1] was 0.0156 µg/mL (≈ 0.0123 µM).

In the case of `CNc1ccc(C(=O)CC(O)CC[C@H](C)C2OC(=O)C[C@H](O)CC(=O)C[C@H](O)C[C@H](O)C[C@H](O)C[C@H](O)C[C@]3(O)C[C@H](O)[C@@H](C(=O)NCCN(C)C)[C@H](C[C@@H](O[C@@H]4O[C@H](C)[C@@H](O)[C@H](NC(=O)CN(C)C)[C@@H]4O)/C=C/C=C/C=C/C=C/C=C/C=C/C=C/C2C)O3)cc1.O=C1O[C@H]([C@@H](O)CO)C(O)=C1O.O=C1O[C@H]([C@@H](O)CO)C(O)=C1O` (some centres not stated), the outcome with Aspergillus flavus [2], in the data set on Aspergillus niger [3], in the data set on Aspergillus flavus [4], in the data set on Aspergillus niger [5], with Aspergillus fumigatus [7] and in the data set on Aspergillus flavus [11] was Active. For the same compound, the result with Aspergillus niger [12], with Aspergillus fumigatus [13], in the data set on Aspergillus fumigatus [14] and in the data set on Aspergillus [15] was Active. For the same compound, the Activity result in the data set on Mus musculus [6] is “Non-toxic”; with Aspergillus flavus [9], “Dose-dependent effect”; in the data set with Mus musculus [16], “Non-toxic”; in the data set on Aspergillus niger [17], “Dose-dependent effect”. Moreover, the MIC against Aspergillus flavus [8] was 0.25 µg/mL; in the data set with Aspergillus fumigatus [1], 0.5 µg/mL; with Aspergillus niger [18], 0.0625 µg/mL. Also, in the data set with Aspergillus [10], the result was inactive.

As to `C[C@@H]1[C@H](O)[C@@H](C)/C=C/C=C/C=C/C=C/C=C/C=C/C=C/[C@H](O[C@@H]2O[C@H](C)[C@@H](O)[C@H](N)[C@@H]2O)C[C@@H]2O[C@](O)(C[C@@H](O)C[C@@H](O)[C@H](O)CC[C@@H](O)C[C@@H](O)CC(=O)O[C@H]1C)C[C@H](O)[C@H]2C(=O)O` [AMPHOTERICIN B], the outcome with Aspergillus fumigatus [7] and in the data set with Aspergillus fumigatus [21] was Active. Moreover, the MIC against Aspergillus flavus [8] amounted to 0.5 µg/mL (≈ 0.541 µM); against Aspergillus fumigatus [1], 0.25 µg/mL (≈ 0.271 µM); with Aspergillus niger [18] it was 0.25 µg/mL (≈ 0.271 µM). The Activity entry with Mus musculus [19] was “Non-toxic”; in the data set with Mus musculus [20], “Toxic”; in the data set with Mus musculus [22], “Non-toxic”.
